Source: patent US20090203775A1, “Novel compound and a novel microorganism for producing the novel compound” (Haiyi Biotech Pte, Ltd., priority 2005, published 2009)
In brackets after ≈: the same amount, converted by molar mass. Read-outs that look alike come from different tables or passages of the source.

Assays:
Coxsakie B3 virus = experiment: organism not typed; type: cell-based; conditions: for IC50: read-out: IC50 (half inhibitory concentration for the virus)
Experimental: Treatment of the sample: The sample was first dissolved in DMSO to appropriate concentration. The sample solutions were then diluted the samples in culture medium solution to obtain eight concentrations.
(§1) Methods: The Veo cells were cultured in 96-well plates. The cells were infected with Coxsakie B3 virus for 2 hours after 24 hours of incubation. The solution containing the virus was then discarded. The samples were then added into the wells at the concentrations with the appropriate controls. The cell pathological extent (CPE) was observed 36 hours later. The half inhibitory concentration (IC50) was calculated by using the method of Reed-Muench.
(§2) (1) “-” means that the sample has no anti Coxsakie B3 virus effect at the maximal dose with no toxicity. (2) TC50 indicates the half toxic concentration; IC50 indicates the half inhibitory concentration for the virus; SI indicates the selective index, calculated as the follow: SI=TC50/IC50

C. albicans = experiment: Germicidal effect, MTT assay, C. albicans; type: cell-based
Experimental: (§3) Aims: To observe the germicidal effect of the compound of formula (I) on T. rubrum, T. mentagrophytes, C. albicans and B. subtilis. Method: […] Concentration of the samples were: (1) 2 mg/ml; (2) 1 mg/ml; (3) 0.5 mg/ml; (4) 0.25 mg/ml; Volume of the sample: 50 ul/well.

T. mentagrophytes = experiment: Germicidal effect, MTT assay, T. mentagrophytes; type: cell-based
Experimental: as §3

[1] = system: Eca-109 (esophageal cancer cells); experiment: MTT assay, percentage of killing, Eca-109; type: cell-based; conditions: for percentage of killing: MTT, 24~48 hours
Experimental: (§4) 1. Method: 3-[4,5-dimethyl(thiazol-2-yl)-3,5-diphery] tetradium bromide (MTT) assay. 2. Culture medium: RPMI-1640 medium containing 2% calf serum 3. Apparatus: (1) CO2 incubator, Sherton USA; (2) 318MC Enzyme analysis machine, SANCO Equipments Company Ltd. 4. Conditions of the culture: Temp. 37° C.; Concentration of CO2: 4.7%, culture duration: 24˜48 hours.

[2] = system: L1210 (mouse lymph leukemia cells); experiment: Survival of mice transplanted with L1210; type: in vivo, BDF-1 mice; conditions: d 1, d 6, s.c.; for duration of survival (Ave): control 15
Experimental: Aims: To observe the effect of prolonging the survival of the compound of formula (I) on mice transplanted with L1210, a kind of mouse lymph leukemia cells.
Methods: 18 BDF-1 mice, male. L1210 (mouse lymph leukemia cells) were administered by i.p. injection, at the dose of 1×10^5 per mouse. Mice were divided into three groups randomly, with six animals per group. The test group was administered with the drug on day 1 and day 6 by subcutaneous (s.c.) injection. An equal volume of saline was administered in control animals.
Dosage: Test group 1: 50 mg/kg the lyophilized powder injection of the compound of formula (I) was administered by s.c. injection, • Test group 2: 25 mg/kg the lyophilized powder injection of the compound of formula (I) was administered by s.c. injection, • Test group 3: 12.5 mg/kg the lyophilized powder injection of the compound of formula (I) was administered by s.c. injection.

[3] = system: MGC (human stomach cancer cells); experiment: MTT assay, percentage of killing, MGC; type: cell-based; conditions: 24~48 hours
Experimental: as §4

[4] = system: L1210 (mouse leukemia cells); experiment: MTT assay, percentage of killing, L1210; type: cell-based; conditions: 24~48 hours
Experimental: as §4

[5] = system: human stomach cancer cells MGC-803; experiment: Nude mouse transplanted with human stomach cancer MGC-803, tumor growth inhibition; type: in vivo, BALB/cA nude mice
Experimental: Aim: To observe the growth inhibitory effect and the intensity of the effect of the compound of formula (I) in nude mouse transplanted with human stomach cancer cells MGC803.
Material: The lyophilized injection powder of the compound of formula (I), 15 mg/vial, diluted to the needed concentration by 0.9% saline before use.
Dosages: the dosages of the compound of formula (I) are 15, 10 and 5 mg/kg.
Animals: BALB/cA nude mice, female, 40˜45-days old, body weight is 18±2 g. The number of the animals in per group: negative control: 12; group with drug: 6.
Transplanted tumor: Human stomach cancer MGC-803 cells were transplanted into the nude mice as follows. Approximately half a million […] of the MGC-803 cells was injected subcutaneously (s.c.) into the mice. The tumors were used after breeding the mice for three generations.
Methods: Tumors in peak growth were cut into the sizes of around 1.5 mm^3. Under aseptic conditions the tumours were injected subcutaneously to the right axilla of the mouse. The size of the transplanted tumor is then measure and the animals randomly divided into several groups when the size of the tumor reaches 100-200 mm^3. The drug is administered by intravenous (i.v.) injection on the 1st and 6th days. Saline is administered as control. The size of the tumor is examined every two weeks together with the weight of the mouse. The tumor volume(TV) is calculated as:
Where, a and b represent length and width, respectively. The relative tumor volume (RTV) is calculated as: RTV=Vt/V0, where V0 is the volume of the tumor before administering the compound, Vt is the volume of the tumor after administering the compound. The index for evaluating the activity of anticancer is the relative growth rate of tumor (T/C), which is calculated as: […]
wherein, TRTV is the administering group; CRTV is the control group.
The standard for evaluating the treatment effect: T/C (%)>60% means no effect, T/C<=60% and p<0.05 means having a significant effect.

[6] = system: T. rubrum, T. mentagrophytes, C. albicans and B. subtilis; experiment: Germicidal effect, MTT assay, summary statement for all strains; type: cell-based; conditions: ≧50 μg/well; summary for the strains of Table 8
Experimental: as §3

Veo cells = experiment: Half toxic concentration in the antiviral test cells; type: cell-based
Experimental: as §1, §2

[7] = system: A2780 (human ovary cancer cells); experiment: MTT assay, percentage of killing, A2780; type: cell-based; conditions: 24~48 hours
Experimental: as §4

[8] = system: B16 (mouse melanocytoma cells); experiment: MTT assay, percentage of killing, B16; type: cell-based; conditions: 24~48 hours
Experimental: as §4

B. subtilis = experiment: Germicidal effect, MTT assay, B. subtilis; type: cell-based
Experimental: as §3

[9] = system: L1210, a kind of lymph leukemia cell; experiment: Ex vivo treatment of L1210 cells, then i.p. injection into mice; type: in vivo, BDF-1 mice
Experimental: Control: 6 BDF-1 mice, male, administer to each mouse 1×10^8 L1210, a kind of lymph leukemia cell, by intraperitoneal (i.p.) injection, (without the compound of formula (I) treatment); results are shown in FIG. 11.
Ex vivo test group: 6 BDF-1 mice, male, administer to each mouse 1×10^8 L1210 cells by i.p. injection, wherein the L1210 were treated with the compound of formula (I). The method of treating cells ex vivo: The concentration of the lyophilized powder injection of the compound of formula (I) is 7.5 mg/ml. It was diluted to 150 ug/ml with saline solution. A volume of 67 ul of the diluted injection solution is mixed with 1.5 ml L1210 cells and 0.433 ml saline to obtain in each […] of L1210 cells to contain 5 ug the compound. The mixture is placed at the room temperature for two hours.

T. rubrum = experiment: Germicidal effect, MTT assay, T. rubrum; type: cell-based
Experimental: as §3

Compound NC(=O)c1ncn([C@@H]2O[C@H](CO)[C@@H](O)[C@H]2O)n1 [RBV, Ribavirin, reference compound] has an IC50 (Coxsakie B3 virus; 36 h) of 448 µg/mL (≈ 1830 µM).

With O=C1CC[C@H](c2ccc(O)c3c2C(=O)C2OC2[C@H]3O)c2cccc(O)c21 (stereo partly shown) [compound of formula (I)] the “Gemicidal effect (killing rate)” value (C. albicans; 12.5 μg/ml) was 50%, the “Gemicidal effect (killing rate)” value (C. albicans; 25 μg/ml) was 75% and the “Gemicidal effect (killing rate)” value (C. albicans; 50 μg/ml) was 99%. For the same compound, the “Gemicidal effect (killing rate)” value (C. albicans; 100 μg/ml) was 99.5%, the “Gemicidal effect (killing rate)” value (T. mentagrophytes; 12.5 μg/ml) was 60% and the “Gemicidal effect (killing rate)” value (T. mentagrophytes; 25 μg/ml) was 82%. The “Gemicidal effect (killing rate)” value (T. mentagrophytes; 50 μg/ml) was 99.5%, the “Gemicidal effect (killing rate)” value (T. mentagrophytes; 100 μg/ml) was 100% and the percentage of killing ([1]; Eca-109, 312.5 ng/ml) was 0%. The percentage of killing ([1]; Eca-109, 625 ng/ml) was 0%, the percentage of killing ([1]; Eca-109, 1.25 ug/ml) was 0% and the percentage of killing ([1]; Eca-109, 2.5 ug/ml) was 0%. For the same compound, the percentage of killing ([1]; Eca-109, 5 ug/ml) was 0.18%, the “effect on Eca-109 (in words)” value ([1]; Eca-109, MTT) was “no effect” and the “prolonging days” value ([2]; 12.5 mg/kg) was 5 days. The “rate of prolonging (%)” value ([2]; 12.5 mg/kg) was 33%, the “duration of survival (Ave)” value ([2]; 12.5 mg/kg) was 20 and the “prolonging days” value ([2]; 25 mg/kg) was 7 days. For the same compound, the “rate of prolonging (%)” value ([2]; 25 mg/kg) was 47%, the “duration of survival (Ave)” value ([2]; 25 mg/kg) was 22 and the “prolonging days” value ([2]; 50 mg/kg) was 13 days. The “rate of prolonging (%)” value ([2]; 50 mg/kg) was 87%, the “duration of survival (Ave)” value ([2]; 50 mg/kg) was 28 and the percentage of killing ([3]; 312.5 ng/ml) was 0%. For the same compound, the percentage of killing ([3]; 625 ng/ml) was 40.98%, the percentage of killing ([3]; 1.25 ug/ml) was 42.32% and the percentage of killing ([3]; 2.5 ug/ml) was 64.37%. For the same compound, the percentage of killing ([3]; 5 ug/ml) was 85.52%, the percentage of killing ([4]; L1210, 312.5 ng/ml) was 0% and the percentage of killing ([4]; L1210, 625 ng/ml) was 0%. It also gave a percentage of killing ([4]; L1210, 1.25 ug/ml) of 17.02%, a percentage of killing ([4]; L1210, 2.5 ug/ml) of 94.18% and a percentage of killing ([4]; L1210, 5 ug/ml) of 97.00%. The “growth inhibitory effect (in words)” value ([5]; 15 mg/kg on day 1 and day 6, i.v., T/C<=60% and p<0.05 means significant effect) was “significant growth inhibitory effect”, the “weight(g) final” value ([5]; 15 mg/kg, d 1, d 6, i.v., lyophilized powder, body weight of mice, final) was 17.2 g and the “weight(g) Initial” value ([5]; 15 mg/kg, d 1, d 6, i.v., lyophilized powder, body weight of mice, initial) was 18.3 g. The “T/C (%)” value ([5]; 15 mg/kg, d 1, d 6, i.v., relative growth rate of tumor, TRTV/CRTV x 100) was 0.18%, the RTV ([5]; 15 mg/kg, d 1, d 6, i.v., relative tumor volume Vt/V0) was 0.02 ± 4.3 and the “complete disappearance of tumor” value ([5]; 15 mg/kg, d 1, d 6, i.v., three weeks after the treatment, 6 mice) was “the tumor in one mouse disappeared completely”. For the same compound, the “TV(mm^3) d 0” value ([5]; 15 mg/kg, d 1, d 6, i.v., tumor volume before treatment) was 102 ± 22 mm^3, the “TV(mm^3) d 21” value ([5]; 15 mg/kg, d 1, d 6, i.v., tumor volume d 21) was 2.2 ± 0.04 mm^3 and the antifungal effects [6] was 99.9%. For the same compound, the “TC50 (half toxic concentration)” value (Veo cells) was 24.7 µg/mL, the selectivity ratio at 36 h (Coxsakie B3 virus; African green monkey, Veo cells infected with Coxsakie B3 virus, Coxsakie B3 virus in Veo cells, read-out: SI (selective index, TC50/IC50)) was 2.88 and the IC50 (Coxsakie B3 virus; Coxsakie B3 virus in Veo cells, CPE after 36 hours, Reed-Muench) was 8.56 µg/mL. The percentage of killing ([7]; A2780, 312.5 ng/ml) was 0%, the percentage of killing ([7]; A2780, 625 ng/ml) was 35.31% and the percentage of killing ([7]; A2780, 1.25 ug/ml) was 46.5%. For the same compound, the percentage of killing ([7]; A2780, 2.5 ug/ml) was 73.08%, the percentage of killing ([7]; A2780, 5 ug/ml) was 90.91% and the percentage of killing ([8]; B16, 312.5 ng/ml) was 1.06%. It also gave a percentage of killing ([8]; B16, 625 ng/ml) of 6.37%, a percentage of killing ([8]; B16, 1.25 ug/ml) of 0% and a percentage of killing ([8]; B16, 2.5 ug/ml) of 51.75%. The percentage of killing ([8]; B16, 5 ug/ml) was 72.53%, the “Gemicidal effect (killing rate)” value (B. subtilis; 12.5 μg/ml) was 65% and the “Gemicidal effect (killing rate)” value (B. subtilis; 25 μg/ml) was 85%. For the same compound, the “Gemicidal effect (killing rate)” value (B. subtilis; 50 μg/ml) was 99%, the “Gemicidal effect (killing rate)” value (B. subtilis; 100 μg/ml) was 100% and the duration of survival ([9]; 6 BDF-1 mice given 1×10^8 L1210 cells i.p., cells treated ex vivo with 5 ug compound, two hours, room temperature, controls died at 12-15 days) was “after 60 days”. The “others (symptoms)” value ([9]; 6 BDF-1 mice given compound-treated L1210 cells i.p.) was “no symptom”, the “killing of L1210 ex vivo (in words)” value ([9]; L1210 treated ex vivo with 5 ug compound, two hours, room temperature) was “killed completely” and the “Gemicidal effect (killing rate)” value (T. rubrum; 12.5 μg/ml) was 58%. The “Gemicidal effect (killing rate)” value (T. rubrum; 25 μg/ml) was 80%, the “Gemicidal effect (killing rate)” value (T. rubrum; 50 μg/ml) was 99% and the “Gemicidal effect (killing rate)” value (T. rubrum; 100 μg/ml) was 100%.
